# Test results published in patent publication US6177441A, “Treating red blood cell solutions with anti-viral agents” (Cerus Corporation, priority 1998, dated 2001).
# Where a name gives a salt, the structure may show the parent alone.
# Assays:
# red blood cells [1] = tested on: red blood cells
# R17 [2] = type: cell-based, bacteriophage R17
# R17 [3] = assay: R17 inactivation by Compound 1 in packed red blood cells (Example 2); type: cell-based, bacteriophage R17
# Experimental: Another experiment was performed to test the inactivation ability of a novel compound, Compound 1. A 1:1000 dilution of R17 (stock titer was 11.9 logs) was prepared in 25 ml packed red blood cells. To each of 5 tubes was added 5 ml of this R17-packed red blood cell solution. Compound 1 was then dissolved in saline to a final concentration of 3 mg/ml. The compound in solution was added to the […] as follows: the first tube, the control tube, received saline only; the second tube received 10 μg/ml of Compound 1 in saline; the third tube received 30 μg/ml of Compound 1 in saline; the forth tube received 100 μg/ml Compound 1 in saline and the final tube received 300 μg/ml of Compound 1 in saline. The tubes were mixed and then incubated at 4° C. overnight. […] Concentrations above 30 μg/ml inactivated approximately 4 logs of R17 with a starting titer of 10 logs of R17.
# cell-free HIV = assay: microbe, parasite or virus in culture; type: cell-based; settings: Human immunodeficiency virus 1, Erythrocyte, 100 min
# red blood cells [4] = settings: mouse, in vivo
# red blood cells [5] = settings: mouse, in vivo; remark: listed apart in the source
# cell-associated HIV = assay: microbe, parasite or virus in culture; type: cell-based, HIVIIIB; settings: Human immunodeficiency virus 1, Erythrocyte
# R17 [6] = assay: Kinetics of R17 inactivation by QM with NAC quench (Example 3); settings: for Log Titer: NAC/no QM, no NAC/no QM 8.80
# red cells = settings: photo treatment; cited from earlier work
# R17 [7] = tested on: R17
smiles,measurement,setting,value
"O=C(O)CCCc1ccc(N(CCCl)CCCl)cc1 [Chlorambucil, chlorambucil]",IgG binding of red cells,red blood cells [1],did not alter
same,R17 inactivation,R17 [2],≤ 0.4 logs
same,R17 inactivation (words),R17 [2],little or no inactivation
"COc1c2occc2c(CN(CCCl)CCCl)c2ccc(=O)oc12 [Compound 1, 5-[N,N-bis(2-chloroethyl)amino]methyl-8-methoxypsoralen hydrochloride]",R17 inactivation activity,R17 [3]; 10-300 μg/ml in packed red blood cells,showed R17 inactivation activity
same,R17 inactivated,"R17 [3]; concentrations above 30 μg/ml, 4° C. overnight, starting titer 10 logs",approximately 4 logs
"CCN(CCCl)CCCNc1c2ccc(Cl)cc2nc2ccc(OC)cc12.Cl.Cl [ICR-170, N-(2-chloroethyl)-N-ethyl-N'-(6-chloro-2-methoxy-9-acridinyl)-1,3-propanediamine dihydrochloride]",log reduction at 10 µg/mL,cell-free HIV,0.6
same,log reduction at 20 µg/mL,cell-free HIV,1.3
same,log reduction at 40 µg/mL,cell-free HIV,2.3
same,log reduction at 80 µg/mL,cell-free HIV,4
same,"% RECOVERY, HIGH",red blood cells [4],90.4
same,"% RECOVERY, LOW",red blood cells [4],93.1
same,LOSS PER DAY,red blood cells [5],2.71%
same,RECOVERY,red blood cells [5],86.0 ± 6.6
same,log reduction at 10 µg/mL,cell-associated HIV,0.5
same,log reduction at 20 µg/mL,cell-associated HIV,1.2
same,log reduction at 40 µg/mL,cell-associated HIV,2
same,log reduction at 80 µg/mL,cell-associated HIV,2
"CC(=O)N[C@@H](CS)C(=O)O [NAC, N-acetyl-cysteine]",R17 kill by NAC alone,R17 [6],does not kill R17
same,protection against QM inactivation,R17 [6]; NAC added before QM,"substantial, but not complete protection against QM inactivation"
same,Log Titer,R17 [6]; dilute at end,8.35
same,Log Titer,R17 [6]; dilute,8.73
same,quenching of QM activity,R17 [6]; combination of NAC and dilution,almost complete quenching of QM activity
CN(C)c1ccc2nc3ccc(=[N+](C)C)cc-3sc2c1 [methylene blue],ATP of photo treated red cells,red cells,loss of ATP
same,IgG binding of photo treated red cells,red cells,binding of autologous immunoglobulin (IgG) to the red cell surface
same,ion permeability of photo treated red cells,red cells,enhanced ion permeability
CCN(CC)CCCC(C)Nc1c2ccc(Cl)cc2nc2ccc(OC)cc12 (centres unmarked) [quinacrine],light-dependent kill of R17,R17 [7],no light-dependent kill
